# Measured values as given in US20090005348A1, “Compounds Having Cytokine Modulating Properties” (VITAL HEALTH SCIENCES PTY LTD, priority 2005, published 2009).
# Columns and labels:
# IL-1β = IL-1β level in the plasma of hypercholesterolemic rabbits; format: in vivo, New Zealand albino rabbits; conditions: TA at 300 mg/kg feed, 2% cholesterol diet, 4 weeks
# From the text: (§1) 47 female New Zealand albino rabbits were obtained at 4-8 weeks of age. They were divided into 7 treatment groups, which consisted of 5-10 animals per group. All the animals were placed on a vitamin E stripped diet, and all the diets contained 2% cholesterol except for the control group (which contained no cholesterol) for 4 weeks (containing the various TA or TPm treatments outlined below). [table] At the end of the treatment period the animals were sacrificed and the blood collected. The plasma was obtained from this blood and the levels of various markers of inflammation were determined and included: IL-1β, IL-6, IL-8, TNF, PAI-1, and CRP. Other markers of inflammation such as CD36 was determined from mRNA isolated from the aortas of the rabbits to determine expression levels.
# TNF = TNF level in the plasma of hypercholesterolemic rabbits; format: in vivo, New Zealand albino rabbits; conditions: TA at 300 mg/kg feed, 2% cholesterol diet, 4 weeks
# From the text: as §1
# PAI-1 = PAI-1 activity in the plasma of hypercholesterolemic rabbits; format: in vivo, New Zealand albino rabbits; conditions: TA at 300 mg/kg feed, 2% cholesterol diet, 4 weeks
# From the text: as §1
# [1] = test system: T cells from old (>22 months) C57BL mice; assay: T cell proliferation ([3H] thymidine, anti-CD3/anti-CD28), old mice; format: cell-based; conditions: all the alpha-T treatments (12.5-100 μM), n=6, p<0.05, FIG. 8
# Description: T cells from young (4 to 6 months) and old (>22 months) C57BL mice were isolated and purified from splenocytes by negative selection using Pan T cell isolation kit from Miltenyi Biotech.
# The tocopherol phosphate mixture (alpha-TP) provided by Phosphagenics Limited was composed of approximately ⅔ mono-tocopheryl phosphate (MW 510.7) and ⅓ di-tocopheryl phosphate (MW 923.3), which makes the MW of the compound 598.0. Ethanol was used to dissolve the solid alpha-TP mixture to make a 107.52 mg/ml stock solution ([…]). 34 mg/ml alpha-tocopherol (alpha-T) in ethanol was used as a stock solution of alpha-T (79.06 mM). The solutions used for pre-incubation and incubation were prepared as follows: […]
# After pre-incubation, the cells were stimulated (2×10^5 cells/well) in triplicate in a round bottom 96-well plate with plate-bound anti-CD3 (5 μg/ml, anti-CD3e (145-2C11), Pharmingen Cat# 553058) and soluble anti-CD28 (2 μg/ml, final concentration, anti-CD28 (37.51), Pharmingen Cat# 553294) in RPMI medium containing 5% FBS (final concentration and same concentration of vehicle, alpha-tocopherol or alpha-tocopherol phosphate used in the pre-incubation. The cells were incubated at 35° C., 5% CO2 for 64 hours, then, pulsed with 0.5 μCi of [^3H] thymidine for 8 hours. The cells were harvested onto filter paper and proliferation was quantified as the amount of [^3H] […]
smiles,measurement,setting,value
"CC(=O)Oc1c(C)c(C)c2c(c1C)CCC(C)(CCC[C@H](C)CCC[C@H](C)CCCC(C)C)O2 (stereo partly shown) [TA, tocopherol acetate]",plasma IL-1β,IL-1β,modest decreases
same,plasma TNF,TNF,modest decreases
same,plasma PAI-1 activity,PAI-1,modest decreases
"Cc1c(C)c2c(c(C)c1O)CC[C@@](C)(CCC[C@H](C)CCC[C@H](C)CCCC(C)C)O2 [alpha-T, alpha-tocopherol]",T cell proliferation compared to vehicle,[1],significant increase in proliferation
